Measurements from ChEMBL document CHEMBL3885861, “Open TG-GATES”.

Species: Rattus norvegicus
Experiment: Open TG-GATES - Regimen: Single
Format: toxicity, organism-based, Sprague-Dawley
Set-up: regimen Single, gender Male, age 6 weeks
Details: in vivo, po, route gavage; for APTT / Bas / Eos / Fbg / Hb / Ht / Lym / MCH / MCHC / MCV / Mono / Neu / PT / Plat / RBC / Ret / WBC: tissue Blood; for KIDNEY_L / KIDNEY_R / KIDNEY_TOTAL: tissue Kidney; for LIVER: tissue Liver; for A/G / ALP / ALT / AST / BUN / CRE / Ca / Cl / DBIL / GLC / IP / K / LDH / Na / PL / RALB / TBIL / TC / TG / TP / gamma-GTP: tissue Plasma
[1] = 300 mg/kg, 3 h, dose level Middle
[2] = 300 mg/kg, 6 h, dose level Middle
[3] = 300 mg/kg, 9 h, dose level Middle
[4] = 300 mg/kg, 24 h, dose level Middle
[5] = 1000 mg/kg, 3 h, dose level High
[6] = 1000 mg/kg, 6 h, dose level High
[7] = 1000 mg/kg, 9 h, dose level High
[8] = 1000 mg/kg, 24 h, dose level High

## C[C@H]1O[C@H](O[C@H]2[C@H](O)[C@@H](O)[C@@H](O[C@H]3[C@H](O)[C@@H](O)C(O)O[C@@H]3CO)O[C@@H]2CO)[C@H](O)[C@@H](O)[C@@H]1N[C@H]1C=C(CO)[C@@H](O)[C@H](O)[C@H]1O (some centres undefined) [ACARBOSE]
[1]
  TERMINAL_BW: 199.8 g
  APTT: 16.9 s
  Bas: 0%
  Eos: 0.8%
  Fbg: 290.6 mg/dL
  Hb: 13.5 g/dL
  Ht: 41.4%
  Lym: 77.8%
  MCH: 21.2 pg
  MCHC: 32.6%
  MCV: 65.1 fL
  Mono: 2.8%
  Neu: 17.8%
  PT: 13.4 s
  Plat: 115.1 x10_4/uL
  RBC: 636 x10_4/ul
  Ret: 8.7%
  WBC: 82.6 x10_2/uL
  KIDNEY_L: 0.9 g
  KIDNEY_R: 0.9 g
  KIDNEY_TOTAL: 1.9 g
  LIVER: 9 g
  A/G: 0.9
  ALP: 1420.8 IU/L
  ALT: 35.6 IU/L
  AST: 75.4 IU/L
  BUN: 9.8 mg/dL
  CRE: 0.2 mg/dL
  Ca: 10.9 mg/dL
  Cl: 104.6 meq/L
  DBIL: 0.004 mg/dL
  GLC: 172.4 mg/dL
  IP: 10 mg/dL
  K: 4 meq/L
  LDH: 67.8 IU/L
  Na: 141.2 meq/L
  PL: 140 mg/dL
  RALB: 2.5 g/dL
  TBIL: 0.066 mg/dL
  TC: 79.8 mg/dL
  TG: 51.6 mg/dL
  TP: 5.2 g/dL
  gamma-GTP: 1.2 IU/L
[2]
  TERMINAL_BW: 198.7 g
  APTT: 17 s
  Bas: 0%
  Eos: 0.8%
  Fbg: 290.6 mg/dL
  Hb: 13.2 g/dL
  Ht: 40.6%
  Lym: 75.8%
  MCH: 20.8 pg
  MCHC: 32.4%
  MCV: 64 fL
  Mono: 3%
  Neu: 19.6%
  PT: 13.5 s
  Plat: 124.8 x10_4/uL
  RBC: 635 x10_4/ul
  Ret: 8.7%
  WBC: 86.3 x10_2/uL
  KIDNEY_L: 0.9 g
  KIDNEY_R: 0.9 g
  KIDNEY_TOTAL: 1.8 g
  LIVER: 8.2 g
  A/G: 0.9
  ALP: 1441 IU/L
  ALT: 35 IU/L
  AST: 70 IU/L
  BUN: 9.6 mg/dL
  CRE: 0.2 mg/dL
  Ca: 10.8 mg/dL
  Cl: 104 meq/L
  DBIL: 0.004 mg/dL
  GLC: 160.4 mg/dL
  IP: 10.5 mg/dL
  K: 4 meq/L
  LDH: 57 IU/L
  Na: 141.4 meq/L
  PL: 133.6 mg/dL
  RALB: 2.5 g/dL
  TBIL: 0.058 mg/dL
  TC: 71 mg/dL
  TG: 38.6 mg/dL
  TP: 5.2 g/dL
  gamma-GTP: 1 IU/L
[3]
  TERMINAL_BW: 195.2 g
  APTT: 17 s
  Bas: 0.4%
  Eos: 0.8%
  Fbg: 292.8 mg/dL
  Hb: 13.5 g/dL
  Ht: 42%
  Lym: 80.4%
  MCH: 20.7 pg
  MCHC: 32%
  MCV: 64.8 fL
  Mono: 2.2%
  Neu: 15.6%
  PT: 13.4 s
  Plat: 119.8 x10_4/uL
  RBC: 650.2 x10_4/ul
  Ret: 8.7%
  WBC: 84.7 x10_2/uL
  KIDNEY_L: 1 g
  KIDNEY_R: 0.9 g
  KIDNEY_TOTAL: 1.9 g
  LIVER: 7.7 g
  A/G: 0.9
  ALP: 1353.2 IU/L
  ALT: 36.8 IU/L
  AST: 76 IU/L
  BUN: 8.6 mg/dL
  CRE: 0.2 mg/dL
  Ca: 10.3 mg/dL
  Cl: 105.4 meq/L
  DBIL: 0 mg/dL
  GLC: 169.8 mg/dL
  IP: 10.7 mg/dL
  K: 3.8 meq/L
  LDH: 61 IU/L
  Na: 141.4 meq/L
  PL: 131.4 mg/dL
  RALB: 2.4 g/dL
  TBIL: 0.06 mg/dL
  TC: 77 mg/dL
  TG: 36.2 mg/dL
  TP: 5.2 g/dL
  gamma-GTP: 1.2 IU/L
[4]
  TERMINAL_BW: 210.8 g
  APTT: 17.1 s
  Bas: 0%
  Eos: 1%
  Fbg: 248.4 mg/dL
  Hb: 13.1 g/dL
  Ht: 40.2%
  Lym: 76%
  MCH: 21.3 pg
  MCHC: 32.6%
  MCV: 65.2 fL
  Mono: 3.4%
  Neu: 18.8%
  PT: 13.3 s
  Plat: 121 x10_4/uL
  RBC: 617.4 x10_4/ul
  Ret: 7.8%
  WBC: 102.2 x10_2/uL
  KIDNEY_L: 0.9 g
  KIDNEY_R: 0.9 g
  KIDNEY_TOTAL: 1.8 g
  LIVER: 9.9 g
  A/G: 0.9
  ALP: 1736 IU/L
  ALT: 42.2 IU/L
  AST: 71.8 IU/L
  BUN: 13.4 mg/dL
  CRE: 0.2 mg/dL
  Ca: 10.9 mg/dL
  Cl: 104.8 meq/L
  DBIL: 0.012 mg/dL
  GLC: 176.4 mg/dL
  IP: 8 mg/dL
  K: 3.9 meq/L
  LDH: 60.6 IU/L
  Na: 142.6 meq/L
  PL: 134.8 mg/dL
  RALB: 2.6 g/dL
  TBIL: 0.062 mg/dL
  TC: 71.2 mg/dL
  TG: 74 mg/dL
  TP: 5.4 g/dL
  gamma-GTP: 1 IU/L
[5]
  TERMINAL_BW: 197.2 g
  APTT: 17.5 s
  Bas: 0%
  Eos: 1%
  Fbg: 289.2 mg/dL
  Hb: 13.7 g/dL
  Ht: 42%
  Lym: 82.4%
  MCH: 20.7 pg
  MCHC: 32.7%
  MCV: 63.3 fL
  Mono: 2.2%
  Neu: 13.8%
  PT: 13.2 s
  Plat: 116 x10_4/uL
  RBC: 664 x10_4/ul
  Ret: 8%
  WBC: 88.8 x10_2/uL
  KIDNEY_L: 0.9 g
  KIDNEY_R: 0.9 g
  KIDNEY_TOTAL: 1.7 g
  LIVER: 8.2 g
  A/G: 0.9
  ALP: 1484.6 IU/L
  ALT: 38 IU/L
  AST: 73.6 IU/L
  BUN: 10.6 mg/dL
  CRE: 0.2 mg/dL
  Ca: 11 mg/dL
  Cl: 104.4 meq/L
  DBIL: 0.004 mg/dL
  GLC: 166.2 mg/dL
  IP: 10 mg/dL
  K: 4 meq/L
  LDH: 62.6 IU/L
  Na: 141.4 meq/L
  PL: 131.4 mg/dL
  RALB: 2.5 g/dL
  TBIL: 0.054 mg/dL
  TC: 71.4 mg/dL
  TG: 45.2 mg/dL
  TP: 5.2 g/dL
  gamma-GTP: 1 IU/L
[6]
  TERMINAL_BW: 198.5 g
  APTT: 17.1 s
  Bas: 0%
  Eos: 1%
  Fbg: 266.4 mg/dL
  Hb: 13.3 g/dL
  Ht: 41.1%
  Lym: 74.8%
  MCH: 20.9 pg
  MCHC: 32.5%
  MCV: 64.2 fL
  Mono: 3%
  Neu: 20.2%
  PT: 13.5 s
  Plat: 118.8 x10_4/uL
  RBC: 640.4 x10_4/ul
  Ret: 8.2%
  WBC: 81.7 x10_2/uL
  KIDNEY_L: 0.9 g
  KIDNEY_R: 0.9 g
  KIDNEY_TOTAL: 1.8 g
  LIVER: 7.8 g
  A/G: 0.9
  ALP: 1359.2 IU/L
  ALT: 34.4 IU/L
  AST: 73.8 IU/L
  BUN: 9.4 mg/dL
  CRE: 0.2 mg/dL
  Ca: 10.6 mg/dL
  Cl: 104 meq/L
  DBIL: 0.004 mg/dL
  GLC: 167.2 mg/dL
  IP: 10 mg/dL
  K: 4 meq/L
  LDH: 61.6 IU/L
  Na: 140.4 meq/L
  PL: 128.8 mg/dL
  RALB: 2.4 g/dL
  TBIL: 0.066 mg/dL
  TC: 72.2 mg/dL
  TG: 35.4 mg/dL
  TP: 5 g/dL
  gamma-GTP: 1 IU/L
[7]
  TERMINAL_BW: 195.6 g
  APTT: 17 s
  Bas: 0.4%
  Eos: 0.8%
  Fbg: 306 mg/dL
  Hb: 13.6 g/dL
  Ht: 41.9%
  Lym: 78.2%
  MCH: 20.8 pg
  MCHC: 32.3%
  MCV: 64.2 fL
  Mono: 2.2%
  Neu: 18%
  PT: 13.4 s
  Plat: 117.8 x10_4/uL
  RBC: 654.4 x10_4/ul
  Ret: 7.9%
  WBC: 87.1 x10_2/uL
  KIDNEY_L: 0.9 g
  KIDNEY_R: 0.9 g
  KIDNEY_TOTAL: 1.8 g
  LIVER: 7.4 g
  A/G: 0.9
  ALP: 1457.4 IU/L
  ALT: 36 IU/L
  AST: 75.8 IU/L
  BUN: 8.8 mg/dL
  CRE: 0.2 mg/dL
  Ca: 10.6 mg/dL
  Cl: 105.2 meq/L
  DBIL: 0.002 mg/dL
  GLC: 168.8 mg/dL
  IP: 10.1 mg/dL
  K: 3.8 meq/L
  LDH: 67.2 IU/L
  Na: 142 meq/L
  PL: 119 mg/dL
  RALB: 2.5 g/dL
  TBIL: 0.064 mg/dL
  TC: 70.8 mg/dL
  TG: 24 mg/dL
  TP: 5.3 g/dL
  gamma-GTP: 1.2 IU/L
[8]
  TERMINAL_BW: 212.7 g
  APTT: 18.7 s
  Bas: 0%
  Eos: 1.2%
  Fbg: 291.4 mg/dL
  Hb: 13.4 g/dL
  Ht: 40.9%
  Lym: 72.2%
  MCH: 20.9 pg
  MCHC: 32.6%
  MCV: 64.1 fL
  Mono: 2.8%
  Neu: 23%
  PT: 13 s
  Plat: 118.2 x10_4/uL
  RBC: 638.4 x10_4/ul
  Ret: 7.9%
  WBC: 103.5 x10_2/uL
  KIDNEY_L: 0.9 g
  KIDNEY_R: 0.9 g
  KIDNEY_TOTAL: 1.8 g
  LIVER: 9.8 g
  A/G: 0.9
  ALP: 1691 IU/L
  ALT: 44.4 IU/L
  AST: 75.4 IU/L
  BUN: 14.6 mg/dL
  CRE: 0.2 mg/dL
  Ca: 10.7 mg/dL
  Cl: 105.6 meq/L
  DBIL: 0.01 mg/dL
  GLC: 173.4 mg/dL
  IP: 7.9 mg/dL
  K: 4 meq/L
  LDH: 66.2 IU/L
  Na: 142.8 meq/L
  PL: 132.6 mg/dL
  RALB: 2.6 g/dL
  TBIL: 0.06 mg/dL
  TC: 72.2 mg/dL
  TG: 70.8 mg/dL
  TP: 5.5 g/dL
  gamma-GTP: 1 IU/L
